This note sets out measurements from patent US11667649B2, “Heteroaromatic macrocyclic ether chemotherapeutic agents” (Nuvalent, Inc., priority 2020, dated 2023).

In this experiment the test system is TPM3-NTRK1-wt IC50 / primary target (e.g. CD74-ROS1-wt) IC50, Ba/F3 cells. Nature of the experiment: Cell assay TRKA selectivity (TRKA potency divided by primary target potency). The class given is cell-based. As to conditions: for TPM3-NTRK1-wt/CD74-ROS1-G2032R: TRKA selectivity ratio: TPM3-NTRK1-wt IC50 / CD74-ROS1-G2032R IC50, Ba/F3 cells; for TPM3-NTRK1-wt/CD74-ROS1-wt: TRKA selectivity ratio: TPM3-NTRK1-wt IC50 / CD74-ROS1-wt IC50, Ba/F3 cells; for TPM3-NTRK1-wt/EML4-ALK-L1196M-G1202R: TRKA selectivity ratio: TPM3-NTRK1-wt IC50 / EML4-ALK-L1196M-G1202R IC50, Ba/F3 cells; for TPM3-NTRK1-wt/EML4-ALK-wt: TRKA selectivity ratio: TPM3-NTRK1-wt IC50 / EML4-ALK-wt IC50, Ba/F3 cells. A digest of the protocol:
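IL-3-independent Ba/F3 lines stably expressing TPM3-TRKA or the primary fusion (e.g. CD74-ROS1 wt) were exposed to 3-fold compound dilutions for 72 h. Viability was read by CellTiter-Glo luminescence, with IC50 from four-parameter logistic fit. Selectivity is TPM3-NTRK1 IC50 divided by primary-target IC50, binned A (>30-fold) to D (<1).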

In the case of `CCn1ncc2c1-c1cnc(N)c(c1)O[C@H](C)c1cc(F)ccc1-c1nn(C)c(C)c1C2` [Example 87, (19R)-3-ethyl-16-fluoro-9,10,19-trimethyl-20-oxa-3,4,10,11,23-pentaazapentacyclo[19.3.1.0^2,^6.0^8,^12.0^13,^18]pentacosa-1(24),2(6),4,8,11,13,15,17,21(25),22-decaen-22-amine], the TPM3-NTRK1-wt/CD74-ROS1-G2032R entry was “A (bin A for very high selectivity, ratio>30-fold)”; the TPM3-NTRK1-wt/CD74-ROS1-wt result is reported as “A (bin A for very high selectivity, ratio>30-fold)”; the TPM3-NTRK1-wt/EML4-ALK-L1196M-G1202R result is recorded as “C (bin C for moderate selectivity, ratio≥1)”; the TPM3-NTRK1-wt/EML4-ALK-wt entry is given as “A (bin A for very high selectivity, ratio>30-fold)”.
On to `CCc1snc2c1-c1cnc(N)c(c1)O[C@H](C)c1cc(F)ccc1-c1nn(C)cc1C2` [Example 88, (19R)-3-ethyl-16-fluoro-10,19-dimethyl-20-oxa-4-thia-5,10,11,23-tetraazapentacyclo[19.3.1.0^2,^6.0^8,^12.0^13,^18]pentacosa-1(24),2,5,8,11,13,15,17,21(25),22-decaen-22-amine], for which the TPM3-NTRK1-wt/CD74-ROS1-G2032R entry is “B (bin B for high selectivity, ratio>10-fold)”; the TPM3-NTRK1-wt/CD74-ROS1-wt entry was “A (bin A for very high selectivity, ratio>30-fold)”; the TPM3-NTRK1-wt/EML4-ALK-L1196M-G1202R result was “C (bin C for moderate selectivity, ratio≥1)”; the TPM3-NTRK1-wt/EML4-ALK-wt entry is given as “A (bin A for very high selectivity, ratio>30-fold)”.
Take `CCn1ncc2c1-c1cnc(N)c(c1)OCc1cc(F)ccc1-c1nc(C)sc1C2` [Example 89, 3-ethyl-16-fluoro-10-methyl-20-oxa-9-thia-3,4,11,23-tetraazapentacyclo[19.3.1.0^2,^6.0^8,^12.0^13,^18]pentacosa-1(24),2(6),4,8(12),10,13,15,17,21(25),22-decaen-22-amine]: the TPM3-NTRK1-wt/CD74-ROS1-G2032R entry is reported as “A (bin A for very high selectivity, ratio>30-fold)”; the TPM3-NTRK1-wt/CD74-ROS1-wt result was “A (bin A for very high selectivity, ratio>30-fold)”; the TPM3-NTRK1-wt/EML4-ALK-L1196M-G1202R result was “B (bin B for high selectivity, ratio>10-fold)”; the TPM3-NTRK1-wt/EML4-ALK-wt entry is “A (bin A for very high selectivity, ratio>30-fold)”.
For `CCc1noc2c1-c1cnc(N)c(c1)O[C@H](C)c1cc(F)cc(F)c1-c1nn(C)cc1C2` [Example 90, (19R)-3-ethyl-14,16-difluoro-10,19-dimethyl-5,20-dioxa-4,10,11,23-tetraazapentacyclo[19.3.1.0^2,^6.0^8,^12.0^13,^18]pentacosa-1(24),2(6),3,8,11,13,15,17,21(25),22-decaen-22-amine], the TPM3-NTRK1-wt/CD74-ROS1-G2032R result is reported as “A (bin A for very high selectivity, ratio>30-fold)”; the TPM3-NTRK1-wt/CD74-ROS1-wt entry is given as “A (bin A for very high selectivity, ratio>30-fold)”; the TPM3-NTRK1-wt/EML4-ALK-L1196M-G1202R result is “C (bin C for moderate selectivity, ratio≥1)”; the TPM3-NTRK1-wt/EML4-ALK-wt result was “A (bin A for very high selectivity, ratio>30-fold)”.
With `C[C@H]1Oc2cc(cnc2N)-c2c(cnn2CC2CC2)Cc2cc(C(F)(F)F)nn2-c2ccc(F)cc21` [Example 91, (19R)-3-(cyclopropylmethyl)-16-fluoro-19-methyl-10-(trifluoromethyl)-20-oxa-3,4,11,12,23-pentaazapentacyclo[19.3.1.0^2,^6.0^8,^12.0^13,^18]pentacosa-1(24),2(6),4,8,10,13,15,17,21(25),22-decaen-22-amine], the TPM3-NTRK1-wt/CD74-ROS1-G2032R result was “A (bin A for very high selectivity, ratio>30-fold)”; the TPM3-NTRK1-wt/CD74-ROS1-wt result is on record as “A (bin A for very high selectivity, ratio>30-fold)”; the TPM3-NTRK1-wt/EML4-ALK-L1196M-G1202R result was “A (bin A for very high selectivity, ratio>30-fold)”; the TPM3-NTRK1-wt/EML4-ALK-wt entry was “A (bin A for very high selectivity, ratio>30-fold)”.
In the case of `CCn1ncc2c1-c1cnc(N)c(c1)OCc1cc(F)ccc1-n1nc(C(F)(F)F)cc1C2` [Example 92, 3-ethyl-16-fluoro-10-(trifluoromethyl)-20-oxa-3,4,11,12,23-pentaazapentacyclo[19.3.1.0^2,^6.0^8,^12.0^13,^18]pentacosa-1(24),2(6),4,8,10,13,15,17,21(25),22-decaen-22-amine], the TPM3-NTRK1-wt/CD74-ROS1-G2032R result was “A (bin A for very high selectivity, ratio>30-fold)”; the TPM3-NTRK1-wt/CD74-ROS1-wt result is recorded as “A (bin A for very high selectivity, ratio>30-fold)”; the TPM3-NTRK1-wt/EML4-ALK-L1196M-G1202R entry is listed as “C (bin C for moderate selectivity, ratio≥1)”; the TPM3-NTRK1-wt/EML4-ALK-wt result is recorded as “C (bin C for moderate selectivity, ratio≥1)”.
Turning to `CCn1nnc2c1-c1cnc(N)c(c1)O[C@H](C)c1cc(F)ccc1-c1sncc1C2` [Example 93, (19R)-3-ethyl-16-fluoro-19-methyl-20-oxa-11-thia-3,4,5,10,23-pentaazapentacyclo[19.3.1.0^2,^6.0^8,^12.0^13,^18]pentacosa-1(24),2(6),4,8(12),9,13,15,17,21(25),22-decaen-22-amine], the TPM3-NTRK1-wt/CD74-ROS1-G2032R result is recorded as “A (bin A for very high selectivity, ratio>30-fold)”; the TPM3-NTRK1-wt/CD74-ROS1-wt result is “A (bin A for very high selectivity, ratio>30-fold)”; the TPM3-NTRK1-wt/EML4-ALK-L1196M-G1202R entry is on record as “C (bin C for moderate selectivity, ratio≥1)”; the TPM3-NTRK1-wt/EML4-ALK-wt result was “B (bin B for high selectivity, ratio>10-fold)”.
In the case of `C[C@H]1Oc2cc(cnc2N)-c2c(C#N)nn(C)c2Cc2scnc2-c2ccc(F)cc21` [Example 94, (19R)-22-amino-16-fluoro-5,19-dimethyl-20-oxa-9-thia-4,5,11,23-tetraazapentacyclo[19.3.1.0^2,^6.0^8,^12.0^13,^18]pentacosa-1(24),2(6),3,8(12),10,13,15,17,21(25),22-decaene-3-carbonitrile], the TPM3-NTRK1-wt/CD74-ROS1-G2032R entry was “A (bin A for very high selectivity, ratio>30-fold)”; the TPM3-NTRK1-wt/CD74-ROS1-wt entry was “A (bin A for very high selectivity, ratio>30-fold)”; the TPM3-NTRK1-wt/EML4-ALK-L1196M-G1202R entry was “A (bin A for very high selectivity, ratio>30-fold)”; the TPM3-NTRK1-wt/EML4-ALK-wt result is “A (bin A for very high selectivity, ratio>30-fold)”.
Consider `CCn1nnc2c1-c1cnc(N)c(c1)O[C@H](C)c1cc(F)ccc1-c1nscc1C2` [Example 95, (19R)-3-ethyl-16-fluoro-19-methyl-20-oxa-10-thia-3,4,5,11,23-pentaazapentacyclo[19.3.1.0^2,^6.0^8,^12.0^13,^18]pentacosa-1(24),2(6),4,8,11,13,15,17,21(25),22-decaen-22-amine], for which the TPM3-NTRK1-wt/CD74-ROS1-G2032R entry was “A (bin A for very high selectivity, ratio>30-fold)”; the TPM3-NTRK1-wt/CD74-ROS1-wt entry is listed as “A (bin A for very high selectivity, ratio>30-fold)”; the TPM3-NTRK1-wt/EML4-ALK-L1196M-G1202R entry is recorded as “C (bin C for moderate selectivity, ratio≥1)”; the TPM3-NTRK1-wt/EML4-ALK-wt result is on record as “A (bin A for very high selectivity, ratio>30-fold)”.
Consider `CCn1nc(C(F)(F)F)c2c1-c1cnc(N)c(c1)O[C@H](C)c1cc(F)ccc1-c1nn(C)cc1C2` [Example 96, (19R)-3-ethyl-16-fluoro-10,19-dimethyl-5-(trifluoromethyl)-20-oxa-3,4,10,11,23-pentaazapentacyclo[19.3.1.0^2,^6.0^8,^12.0^13,^18]pentacosa-1(24),2(6),4,8,11,13,15,17,21(25),22-decaen-22-amine], for which the TPM3-NTRK1-wt/CD74-ROS1-G2032R result is reported as “A (bin A for very high selectivity, ratio>30-fold)”; the TPM3-NTRK1-wt/CD74-ROS1-wt result was “A (bin A for very high selectivity, ratio>30-fold)”; the TPM3-NTRK1-wt/EML4-ALK-L1196M-G1202R entry is listed as “C (bin C for moderate selectivity, ratio≥1)”; the TPM3-NTRK1-wt/EML4-ALK-wt result is “A (bin A for very high selectivity, ratio>30-fold)”.
Consider `Cc1cc2n(n1)-c1ccc(F)cc1[C@@H](C)Oc1cc(cnc1N)-c1c(C#N)nn(C)c1C2` [Example 97, (19R)-22-amino-16-fluoro-5,10,19-trimethyl-20-oxa-4,5,11,12,23-pentaazapentacyclo[19.3.1.0^2,^6.0^8,^12.0^13,^18]pentacosa-1(24),2(6),3,8,10,13,15,17,21(25),22-decaene-3-carbonitrile], for which the TPM3-NTRK1-wt/CD74-ROS1-G2032R entry is “A (bin A for very high selectivity, ratio>30-fold)”; the TPM3-NTRK1-wt/CD74-ROS1-wt entry was “A (bin A for very high selectivity, ratio>30-fold)”; the TPM3-NTRK1-wt/EML4-ALK-L1196M-G1202R entry is recorded as “B (bin B for high selectivity, ratio>10-fold)”; the TPM3-NTRK1-wt/EML4-ALK-wt entry is on record as “A (bin A for very high selectivity, ratio>30-fold)”.
Regarding `CCn1ncc2c1-c1cnc(N)c(c1)O[C@H](C)c1cc(F)ccc1-n1nc(OC)cc1C2` [Example 98, (19R)-3-ethyl-16-fluoro-10-methoxy-19-methyl-20-oxa-3,4,11,12,23-pentaazapentacyclo[19.3.1.0^2,^6.0^8,^12.0^13,^18]pentacosa-1(24),2(6),4,8,10,13,15,17,21(25),22-decaen-22-amine], the TPM3-NTRK1-wt/CD74-ROS1-G2032R result was “A (bin A for very high selectivity, ratio>30-fold)”; the TPM3-NTRK1-wt/CD74-ROS1-wt entry was “A (bin A for very high selectivity, ratio>30-fold)”; the TPM3-NTRK1-wt/EML4-ALK-L1196M-G1202R result is listed as “C (bin C for moderate selectivity, ratio≥1)”; the TPM3-NTRK1-wt/EML4-ALK-wt result is recorded as “B (bin B for high selectivity, ratio>10-fold)”.
As to `CCn1ncc2c1-c1cnc(N)c(c1)O[C@H](C)c1cc(F)ccc1-c1nocc1C2` [Example 99, (19R)-3-ethyl-16-fluoro-19-methyl-10,20-dioxa-3,4,11,23-tetraazapentacyclo[19.3.1.0^2,^6.0^8,^12.0^13,^18]pentacosa-1(24),2(6),4,8,11,13,15,17,21(25),22-decaen-22-amine], the TPM3-NTRK1-wt/CD74-ROS1-G2032R entry is reported as “A (bin A for very high selectivity, ratio>30-fold)”; the TPM3-NTRK1-wt/CD74-ROS1-wt result is given as “A (bin A for very high selectivity, ratio>30-fold)”; the TPM3-NTRK1-wt/EML4-ALK-L1196M-G1202R entry is reported as “C (bin C for moderate selectivity, ratio≥1)”; the TPM3-NTRK1-wt/EML4-ALK-wt result was “B (bin B for high selectivity, ratio>10-fold)”.
